Laboratory results reported in patent US20240109855A1, “ANTI-QUORUM SENSING, ANTI-BIOFILM, AND INFLAMMATION ATTENUATING COMPOUNDS, COMPOSITIONS, AND METHODS OF USING SAME” (priority 2021, published 2024).
“Also recorded” adds a separate entry of the source.

Columns and labels:
[1] = tested on: Chromobacterium violaceum (CV026); test: Quorum sensing inhibition test with bio-reporter CV026 (TLC overlay); type: cell-based; conditions: for Degree of QSI of CV026: Table 1, coumaperine derivatives, 40 mM in ~20 μL acetonitrile dried on TLC plate, overnight, color intensity; for QSI activity against CV026, in words: running text; for Degree of QSI of CV026: key: −: no inhibition; +: low inhibition; ++: medium inhibition; +++: strong inhibition; for Degree of quorum sensing inhibition (QSI), CV026: key: −: no inhibition; +: low inhibition; ++: medium inhibition; +++: strong inhibition
Procedure: (§1) TLC preparation: all derivatives were dissolved in 100% acetonitrile to a concentration of 40 mM. Then placed 20 μlon the same spot on the TLC and let the solvent evaporate before use. CV026: few colonies were transferred to liquid LB (Lenox) for overnight incubation at 30° C. in a 45 degree in orbital shaker. At the O.D. 0.8 3 ml of the starter was added to preheated soft LB agar containing 500 nM of 3-oxo-C6 (Sigma-Aldrich). The mixture was then loaded on the TLC in a glass plate for O.N. incubation in 30° C. The next day inhibition zone was measured, while QS is taking place bacteria produce purple pigment, and when QS is inhibited no pigment is produced. KYC55 (pJZ372) (pJZ384) (pJZ410): 20 μl from the frozen stock into 25 ml AT media (AT buffer×20: 1.57 M KH2PO4 pH=7.3. AT salts mix×20: 300 mM (NH4)2SO4, 13 mM MgSO4, 1.4 mM CaCl2, 0.4 mM FeSO4·7H2O, 0.26 mM MnSO4·H2O. AT media: 50 ml×20 AT-buffer, 50 ml×20 AT-salts, 10 ml 50% (w/v) glucose, add 890 ml to final volume of 1 liter.) For O.N. at 30° C. in an orbital shaker. Into preheated water agar with 25 ml AT-buffer, and 60 μg/ml X-gal and 5 nM 3-oxo-c8 (both from Sigma-Aldrich) 25 ml of the starter was added. Then, that mixture was loaded on the TLC in glass plate for O.N. incubation in 30° C. The next day the inhibition zone was measured. The bacteria produce blue pigment during QS and when QS is inhibited no pigment is produced. KYC55 (pJZ372) (pJZ384) (pJZ410) preservation in tetracycline (1 μg/ml), spectinomycin (100 μg/ml), gentamicin (100 μg/ml) (all antibiotics from Sigma Aldrich) in AT media O.N. then centrifuged and suspend in 15% glycerol frozen and maintained at −80° C.

[2] = tested on: Agrobacterium tumefaciens (KYC55); test: Quorum sensing inhibition test with bio-reporter KYC55 (TLC overlay); type: cell-based; conditions: for Degree of QSI of KYC55: Table 1, coumaperine derivatives, 40 mM in ~20 μL acetonitrile dried on TLC plate, overnight, color intensity; for QSI activity against KYC55, in words: running text; for Degree of QSI of KYC55: key: −: no inhibition; +: low inhibition; ++: medium inhibition; +++: strong inhibition; for Degree of quorum sensing inhibition (QSI), KYC55: key: −: no inhibition; +: low inhibition; ++: medium inhibition; +++: strong inhibition
Procedure: as §1

[3] = Table 2, piperlongumine derivatives

| Compound | Degree of quorum sensing inhibition (QSI), CV026 [1, 3] | Degree of quorum sensing inhibition (QSI), KYC55 [2, 3] | Degree of QSI of CV026 [1] | QSI activity against CV026, in words [1] | Degree of QSI of KYC55 [2] | QSI activity against KYC55, in words [2] | Degree of quorum sensing inhibition (QSI), CV026 ([1]; Table 3, curcumin derivatives) | Degree of quorum sensing inhibition (QSI), KYC55 ([2]; Table 3, curcumin derivatives) |
| --- | --- | --- | --- | --- | --- | --- | --- | --- |
| CCOC(=O)CNC(=O)/C=C/c1cc(OC)c(OC)c(OC)c1 | − | − |  |  |  |  |  |  |
| COc1cc(OC)c(/C=C/C=C/C(=O)N2CCCCC2)c(OC)c1 [CP-194, (2E,4E)-1-(piperidin-1-yl)-5-(2,4,6-trimethoxyphenyl)penta-2,4-dien-1-one] |  |  | − | inactive | − | inactive |  |  |
| C=CCNC(=O)/C=C/c1cc(OC)c(OC)c(OC)c1 | − | + |  |  |  |  |  |  |
| COc1cc(/C=C/C(=O)CC(=O)/C=C/c2ccc(O)c(OC)c2)ccc1O [curcumin, Curcumin, reference compound] |  |  |  | low activity |  | inactive | + | − |
| O=C(/C=C/C=C/c1ccc2c(c1)OCO2)N1CCCCC1 [CP-262-F1] |  |  | − | inactive | − | inactive |  |  |
| CCNC(=O)/C=C/c1cc(OC)c(OC)c(OC)c1 [PL-17, (E)-N-ethyl-3-(3,4,5-trimethoxyphenyl)acrylamide] | − | − |  | inactive |  | inactive |  |  |
| COc1ccc(/C=C/C=C/C(=O)N2CCCCC2)cc1OC [CP-10, (2E,4E)-5-(3,4-dimethoxyphenyl)-1-(piperidin-1-yl)penta-2,4-dien-1-one] |  |  | − | inactive | − | inactive |  |  |
| COc1ccc(/C=C/C=C/C(=O)N2CCCCC2)c(OC)c1OC [CP-50, (2E,4E)-1-(piperidin-1-yl)-5-(2,3,4-trimethoxyphenyl)penta-2,4-dien-1-one] |  |  | − | inactive | − | inactive |  |  |
| COc1ccc(/C=C/C=C/C=C/C(=O)N2CCCCC2)cc1 [CP-102, (2E,4E,6E)-7-(4-methoxyphenyl)-1-(piperidin-1-yl)hepta-2,4,6-trien-1-one] |  |  | ++ | moderate | + | low |  |  |
| O=C(/C=C/C=C/c1cc(O)c(O)c(O)c1)N1CCCCC1 [CP-262-F2, (2E,4E)-1-(piperidin-1-yl)-5-(3,4,5-trihydroxyphenyl)penta-2,4-dien-1-one] |  |  | − | inactive | + | low activity |  |  |
| COc1cc(/C=C/C(=O)OC(=O)/C=C/c2cc(OC)c(OC)c(OC)c2)cc(OC)c1OC [PL-16A] | − | − |  | inactive |  | inactive |  |  |
| O=C(/C=C/C=C/c1ccc(OC2CCCC2)cc1)N1CCCCC1 [CP-184, (2E,4E)-5-(4-(cyclopentyloxy)phenyl)-1-(piperidin-1-yl)penta-2,4-dien-1-one] |  |  | − | inactive | − | inactive |  |  |
| O=C(/C=C/C=C/c1ccc(Cl)cc1)N1CCCCC1 [CP-123, (2E,4E)-5-(4-chlorophenyl)-1-(piperidin-1-yl)penta-2,4-dien-1-one] |  |  | − | inactive | + | low activity |  |  |
| COc1cc(/C=C/C(=O)N2CCCCC2)ccc1OC(C)=O [CP-291] |  |  | − | inactive | ++ | moderate activity |  |  |
| O=C(CCCCc1ccc2c(c1)OCO2)N1CCCCC1 [CP-THP, Tetrahydro Piperine] |  |  | + | low activity | + | low activity |  |  |
| O=C(/C=C/C=C/c1ccc(O)cc1)N1CCCCC1 [CP, (2E,4E)-5-(4-hydroxyphenyl)-1-(piperidin-1-yl)penta-2,4-dien-1-one] |  |  |  | low activity |  | inactivity |  |  |
| COc1cc(/C=C/C=C/C(=O)N2CCCCC2)cc(OC)c1OC [CP-27, (2E,4E)-1-(piperidin-1-yl)-5-(3,4,5-trimethoxyphenyl)penta-2,4-dien-1-one] |  |  | − | inactive | − | inactive |  |  |
| CCNC(=O)/C=C/c1cc(OC)c(O)c(OC)c1 | − | − |  |  |  |  |  |  |
| COc1cc(/C=C/C(=O)N2CCCCC2)cc(OC)c1OC | − | − |  |  |  |  |  |  |
| COc1cc(/C=C/C(=O)NC(C)C)cc(OC)c1OC | − | − |  |  |  |  |  |  |
| O=C(/C=C/c1ccc(O)c(O)c1)N1CCCCC1 [CP-237, (E)-3-(3,4-dihydroxyphenyl)-1-(piperidin-1-yl)prop-2-en-1-one] |  |  | ++ | moderate activity | ++ | moderate activity |  |  |
| COc1cc(/C=C/C(=O)CC(=O)/C=C/c2ccc(OC(C)=O)c(OC)c2)ccc1OC(C)=O [AC-CU, Diacetylated Curcumin] |  |  |  | inactive |  | inactive | − | − |
| COc1cc(/C=C/C=C/C(=O)N2CCCCC2)cc(OC)c1 [CP-193, (2E,4E)-5-(3,5-dimethoxyphenyl)-1-(piperidin-1-yl)penta-2,4-dien-1-one] |  |  | + | low activity | − | inactivity |  |  |
| COc1cc(/C=C/C(=O)NCCc2ccc(O)c(O)c2)cc(OC)c1OC | − | − |  |  |  |  |  |  |
| COc1cc(CCC(=O)CC(=O)CCc2ccc(OC(C)=O)c(OC)c2)ccc1OC(C)=O [AC-THC, Diacetylated Tetrahydrocurcumin] |  |  |  | inactive |  | inactive | − | − |
| O=C(/C=C/C=C/c1ccc(O)c(O)c1)N1CCCCC1 [CP-209, (2E,4E)-5-(3,4-dihydroxyphenyl)-1-(piperidin-1-yl)penta-2,4-dien-1-one] |  |  | + | low activity; also recorded: inactive | + | low activity; also recorded: inactive |  |  |
| COc1cc(/C=C/C(=O)NCCc2ccc(O)cc2)cc(OC)c1OC | − | − |  |  |  |  |  |  |
| COc1cc(/C=C/C(=O)NCCO)cc(OC)c1OC | − | − |  |  |  |  |  |  |
